Values quoted from earlier work in US6271232A, “Collagenase-1 and stromelysin-1 inhibitors, pharmaceutical compositions comprising same and methods of their use” (Affymax Technologies, N.V., priority 1999, dated 2001).

Molecular target: rabbit bone proteoglycanase
Settings: Delaisse et al. (1985)

In the case of CNC(=O)[C@H](Cc1ccc(OC)cc1)NC(=O)[C@H](CC(C)C)NC(CCNC(=O)OCc1ccccc1)C(=O)O (stereo partly drawn) [N-[3-(benzyloxy-carbonyl)amino-1-carboxy-n-propyl]-L-leucyl-O-methyl-L-tyrosine, N-methylamide], the IC50 is given as 500 nM.
